Laboratory results reported in PMC5583658, “6,7-dimethoxy-1,2,3,4-tetrahydro-isoquinoline-3-carboxylic acid attenuates heptatocellular carcinoma in rats with NMR-based metabolic perturbations” (Future Science OA, 2017).

Columns and labels:
[1] = test system: diethylnitrosamine-induced hepatocarcinogenic rats; assay: 1H-NMR-based serum metabolic profiling; type: in vivo, albino Wistar rats; settings: rat serum
Experimental: All animals were randomly divided into five groups of six animals each. Drugs were suspended in 0.25% CMC, subjected to 28 days’ treatment orally and divided as follows: Group I: 0.25% CMC (2 ml/kg), Group II: DEN (8 mg/kg, intraperitoneally), Group III: DEN+5-fluorouracil (5-FU, 10 mg/kg, intraperitoneally), Group IV: DEN+M1 (50 mg/kg, orally) and Group V: DEN+M1 (100 mg/kg, orally). The procedure to induce HCC was adopted from a paper by Song et al. where it is shown that DEN produces HCC at 8 mg/kg intraperitoneal injection for 28 days to albino Wistar rats. After initial 1 week of adaptive inhabitation, all rats of group II–V were administered with DEN (8 mg/kg, intraperitoneally) for 28 days. After 28 days, 5-FU and M1 were given for 15 days as mentioned above for group III–V. At the end of the experimental period, animals were sacrificed by cervical decapitation and livers were dissected out immediately, rinsed in ice cold saline and stored at -20°C for further studies. The serum was collected, processed and stored for further analysis.
All serum samples were thawed at room temperature, 250 μl of serum was taken and mixed with 250 μl of 0.9% saline sodium-phosphate buffer of strength 50 mM, pH 7.4 prepared in D2O. Then, the samples were centrifuged at 10,000 rpm for 5 min to remove any precipitates before acquiring the NMR data. A total 400 μl of the supernatant sample was used in 5 mm NMR tubes (Wilmad Glass, USA) for data acquisition with a co-axial insert containing the known concentration of TSP (sodium salt of 3-trimethylsilyl-(2,2,3,3-d4)-propionic acid) i.e. 0.1% was used as external standard reference to aid metabolite quantification for NMR experiment. Deuterium oxide (D2O; as a co-solvent and to provide a deuterium field/frequency lock) and sodium salt of trimethylsilylpropionic acid-d4 (TSP) used for NMR experiments, were purchased from Sigma-Aldrich (RI, USA).
All NMR spectra were recorded at 298 K on Bruker Biospin Avance-III 800 MHz NMR spectrometer operating at proton frequency of 800.21 MHz, equipped with CryoProbe and an actively shielded gradient unit with a maximum gradient-strength output of […]. The raw NMR data were processed in Topspin-2.1 (Bruker NMR data Processing Software). For each serum sample, one-dimensional ^1H-NMR and diffusion edited ^1H NMR spectra were recorded using the Carr–Purcell–Meiboom–Gill (CPMG) pulse sequence (cpmgpr1d, standard Bruker pulse program) with pre-saturation of the water peak through irradiating it continuously during the recycle delay (RD) of 5 sec, and the bipolar pulse pair longitudinal eddy current delay (BPP-LED) sequence, respectively. Each CPMG spectrum consisted of the accumulation of 128 scans and lasted for approximately 15 minutes. To remove broad signals from triglycerides, proteins, cholesterols and phospholipids, a total spin–spin relaxation time of 60 ms (n = 300 and 2τ=[…]) with a line broadening factor of 0.3 Hz was applied. For diffusion edited (DE)^1H NMR pulse sequence, the square gradients of 70% of the maximum gradient strength (56 G/cm) and 2 ms duration (followed by a delay of 200 μs to allow for the decay of eddy currents) were used. Diffusion time of 120 ms was used to attenuate the signals from low molecular weight compounds without affecting the lipid signals. All the spectra were processed using Topspin-2.1 (Bruker NMR data Processing Software) using standard Fourier Transformation (FT) procedure following manual phase and baseline-correction. Prior to FT, each FID was zero-filled to 4096 data points and a sine-bell apodisation function was applied. After FT, the chemical shifts were referenced internally to methyl peak of L-lactate (at δ=1.33 ppm). All recorded spectra were visually inspected for acceptability and subjected to multivariate statistical analysis to identify the altered metabolic pattern. […]

albino Wistar rats = assay: Acute oral toxicity study (OECD Guidelines 423); type: in vivo; settings: for Bilirubin / Bilverdin / CAT / MDA / PC / Reduced GSH / SOD: liver; for Bilirubin / Bilverdin / CAT / MDA / PC / Reduced GSH / SOD / AST / ALT: normal rats, mean±SD, n=6; for AST / ALT: plasma
Experimental: Acute oral toxicity study of M1 was performed as per revised Organization for Economic Cooperation and Development Guidelines 423. Animal Ethical Committee approved this study (Approval No. SDCOP&VS/AH/CPCSE01/017/R2). M1 was dissolved in 0.25% carboxymethyl cellulose (CMC) and administered orally at the dose of 25, 50, 100, 250 mg/kg body weight to albino Wistar rats for 4 weeks (n = 6) and the animals were observed every day for any toxic manifestations.

SMILES: COc1cc2c(cc1OC)CC(C(=O)O)NC2 (centres unmarked) [M1, 6,7-dimethoxy-1,2,3,4-tetrahydro-isoquinoline-3-carboxylic acid]
- Variation with respect to DEN: Acac (chemical shift 2.28) ([1]; DEN+M1 50 mg/kg orally): ↑
- Variation with respect to DEN: Ace (chemical shift 1.92) ([1]; DEN+M1 50 mg/kg orally): ↓
- Variation with respect to DEN: Acet (chemical shift 2.23) ([1]; DEN+M1 50 mg/kg orally): ↑
- Variation with respect to DEN: Ala (chemical shift 1.48) ([1]; DEN+M1 50 mg/kg orally): ↓
- Variation with respect to DEN: Betaine (chemical shift 3.265) ([1]; DEN+M1 50 mg/kg orally): ↓
- Variation with respect to DEN: Chol (chemical shift 3.22) ([1]; DEN+M1 50 mg/kg orally): ↓
- Variation with respect to DEN: Cit (chemical shift 2.52) ([1]; DEN+M1 50 mg/kg orally): ↑
- Variation with respect to DEN: Cr (chemical shift 3.03) ([1]; DEN+M1 50 mg/kg orally): ↑
- Variation with respect to DEN: L1 (LDL) (chemical shift 0.83–0.87) ([1]; DEN+M1 50 mg/kg orally): ↓
- Variation with respect to DEN: L2 (VLDL) (chemical shift 0.87–0.90) ([1]; DEN+M1 50 mg/kg orally): ↑
- Variation with respect to DEN: L3 (LDL) (chemical shift 1.23–1.27) ([1]; DEN+M1 50 mg/kg orally): ↓
- Variation with respect to DEN: L4 (VLDL) (chemical shift 1.27–1.30) ([1]; DEN+M1 50 mg/kg orally): ↑
- Variation with respect to DEN: L6 (chemical shift 2.00) ([1]; DEN+M1 50 mg/kg orally): ↓
- Variation with respect to DEN: L9 (chemical shift 5.28) ([1]; DEN+M1 50 mg/kg orally): ↓
- Variation with respect to DEN: Leu (chemical shift 0.96) ([1]; DEN+M1 50 mg/kg orally): ↑
- Variation with respect to DEN: Lys (chemical shift 1.89) ([1]; DEN+M1 50 mg/kg orally): ↓
- Variation with respect to DEN: NAG (chemical shift 2.02) ([1]; DEN+M1 50 mg/kg orally): ↑
- Variation with respect to DEN: OAG (chemical shift 2.13) ([1]; DEN+M1 50 mg/kg orally): ↑
- Variation with respect to DEN: Pyr (chemical shift 2.37) ([1]; DEN+M1 50 mg/kg orally): ↓
- Variation with respect to DEN: Tyr (chemical shift 6.89) ([1]; DEN+M1 50 mg/kg orally): ↓
- Variation with respect to DEN: Acac (chemical shift 2.28) ([1]; DEN+M1 100 mg/kg orally): ↑
- Variation with respect to DEN: Ace (chemical shift 1.92) ([1]; DEN+M1 100 mg/kg orally): ↓
- Variation with respect to DEN: Acet (chemical shift 2.23) ([1]; DEN+M1 100 mg/kg orally): ↑
- Variation with respect to DEN: Ala (chemical shift 1.48) ([1]; DEN+M1 100 mg/kg orally): ↓
- Variation with respect to DEN: Betaine (chemical shift 3.265) ([1]; DEN+M1 100 mg/kg orally): ↓
- Variation with respect to DEN: Chol (chemical shift 3.22) ([1]; DEN+M1 100 mg/kg orally): ↓
- Variation with respect to DEN: Cit (chemical shift 2.52) ([1]; DEN+M1 100 mg/kg orally): ↑
- Variation with respect to DEN: Cr (chemical shift 3.03) ([1]; DEN+M1 100 mg/kg orally): ↓
- Variation with respect to DEN: ILeu (chemical shift 1.00) ([1]; DEN+M1 100 mg/kg orally): ↑
- Variation with respect to DEN: L1 (LDL) (chemical shift 0.83–0.87) ([1]; DEN+M1 100 mg/kg orally): ↓
- Variation with respect to DEN: L2 (VLDL) (chemical shift 0.87–0.90) ([1]; DEN+M1 100 mg/kg orally): ↑
- Variation with respect to DEN: L4 (VLDL) (chemical shift 1.27–1.30) ([1]; DEN+M1 100 mg/kg orally): ↑
- Variation with respect to DEN: Leu (chemical shift 0.96) ([1]; DEN+M1 100 mg/kg orally): ↑
- Variation with respect to DEN: Lys (chemical shift 1.89) ([1]; DEN+M1 100 mg/kg orally): ↓
- Variation with respect to DEN: NAG (chemical shift 2.02) ([1]; DEN+M1 100 mg/kg orally): ↑
- Variation with respect to DEN: Pyr (chemical shift 2.37) ([1]; DEN+M1 100 mg/kg orally): ↓
- Variation with respect to DEN: Tyr (chemical shift 6.89) ([1]; DEN+M1 100 mg/kg orally): ↓
- changes in ALT, AST, bilirubin, biliverdin, SOD, CAT, PC, GSH, TBARS as compared with normal control (albino Wistar rats; M1 dose ranging from 25 to 250 mg/kg orally): no significant changes
- Bilirubin (albino Wistar rats; M1 25 mg/kg orally): 19.24±1.27 ng/µg of protein
- Bilverdin (albino Wistar rats; M1 25 mg/kg orally): 7.15±0.78 ng/µg of protein
- CAT (albino Wistar rats; M1 25 mg/kg orally): 8.22 ± 1.91 nM of H2O2 /min/μg of protein
- MDA (albino Wistar rats; M1 25 mg/kg orally): 9.25 ± 2.87 nM/μg of protein
- PC (albino Wistar rats; M1 25 mg/kg orally): 0.68 ± 0.17 µM/μg of protein
- Reduced GSH (albino Wistar rats; M1 25 mg/kg orally): 4.94 ± 1.17 µM/μg of protein
- SOD (albino Wistar rats; M1 25 mg/kg orally): 14.27 ± 2.88 U/μg of protein
- Bilirubin (albino Wistar rats; M1 50 mg/kg orally): 19.11±3.19 ng/µg of protein
- Bilverdin (albino Wistar rats; M1 50 mg/kg orally): 5.99±1.04 ng/µg of protein
- CAT (albino Wistar rats; M1 50 mg/kg orally): 6.94 ± 2.06 nM of H2O2 /min/μg of protein
- MDA (albino Wistar rats; M1 50 mg/kg orally): 10.11 ± 0.96 nM/μg of protein
- PC (albino Wistar rats; M1 50 mg/kg orally): 0.62 ± 0.05 µM/μg of protein
- Reduced GSH (albino Wistar rats; M1 50 mg/kg orally): 5.42 ± 1.34 µM/μg of protein
- SOD (albino Wistar rats; M1 50 mg/kg orally): 9.78 ± 1.17 U/μg of protein
- Bilirubin (albino Wistar rats; M1 100 mg/kg orally): 18.24±2.55 ng/µg of protein
- Bilverdin (albino Wistar rats; M1 100 mg/kg orally): 7.62±1.45 ng/µg of protein
- CAT (albino Wistar rats; M1 100 mg/kg orally): 8.45 ± 1.59 nM of H2O2 /min/μg of protein
- MDA (albino Wistar rats; M1 100 mg/kg orally): 11.22 ± 1.91 nM/μg of protein
- PC (albino Wistar rats; M1 100 mg/kg orally): 0.49 ± 0.07 µM/μg of protein
- Reduced GSH (albino Wistar rats; M1 100 mg/kg orally): 5.78 ± 1.65 µM/μg of protein
- SOD (albino Wistar rats; M1 100 mg/kg orally): 8.97 ± 1.95 U/μg of protein
- Bilirubin (albino Wistar rats; M1 250 mg/kg orally): 20.13±2.56 ng/µg of protein
- Bilverdin (albino Wistar rats; M1 250 mg/kg orally): 7.91±0.99 ng/µg of protein
- CAT (albino Wistar rats; M1 250 mg/kg orally): 7.38 ± 1.28 nM of H2O2 /min/μg of protein
- MDA (albino Wistar rats; M1 250 mg/kg orally): 12.33 ± 2.17 nM/μg of protein
- PC (albino Wistar rats; M1 250 mg/kg orally): 0.48 ± 0.08 µM/μg of protein
- Reduced GSH (albino Wistar rats; M1 250 mg/kg orally): 6.22 ± 1.07 µM/μg of protein
- SOD (albino Wistar rats; M1 250 mg/kg orally): 9.12 ± 1.65 U/μg of protein
- safe dose (albino Wistar rats; oral, albino Wistar rats, 4 weeks): up to 250 mg/kg body weight
- AST (albino Wistar rats; M1 25 mg/kg orally): 11.33 ± 3.67 U/L
- ALT (albino Wistar rats; M1 50 mg/kg orally): 33.16± 4.22 U/L
- AST (albino Wistar rats; M1 50 mg/kg orally): 11.90 ± 1.69 U/L
- ALT (albino Wistar rats; M1 100 mg/kg orally): 33.24 ± 1.57 U/L
- AST (albino Wistar rats; M1 100 mg/kg orally): 14.33 ± 1.28 U/L
- ALT (albino Wistar rats; M1 250 mg/kg orally): 35.11 ± 2.84 U/L
- AST (albino Wistar rats; M1 250 mg/kg orally): 14.92 ± 3.52 U/L
